How the values were obtained:
rice plant = assay: Test Example 7, flooded paddy pot dripping, phytotoxicity to rice plant; format: in vivo; details: 3 weeks; note: ranges in brackets are in %
Protocol: (§1) The application of the tetrahydrophthalimides (I) as herbicides will be illustratively shown in the following Examples wherein the phytotoxicity to cultivated plants and the herbicidal activity on weeds were evaluated as follows: the aerial parts of the test plants were cut off and weighed (fresh weight); the percentage of the fresh weight of the treated plant to that of the untreated plant was calculated with the latter fresh weight taken as 100; and the crop damage and the herbicidal activity were evaluated by the standard given in the table below. The rating values of phytotoxicity, 0 and 1, and those of herbicidal effect, 5 and 4, are generally regarded as satisfactory to protect cultivated plants and control weeds, respectively. The rating values in the paddy field test alone were calculated from the dry weight of the test plants.
(§2) Wagner's pots (1/5000 are) were filled with paddy field soil and water was poured therein to make a flooded condition. Rice seedlings of the 3-leaf stage were transplanted and tubers of slender spikerush and arrowhead and the seeds of barnyardgrass, monochoria and broad-leaved weed were sowed therein and grown for 5 days. When germination occurs, a designed amount of the test compound formulated into an emulsifiable concentrate according to Preparation Example 2 was applied to the pots by dripping. The test plants were grown for a further 3 weeks, and herbicidal activity and phytotoxicity were examined. The herbicidal activity was evaluated in figures ranging from 0 to 5. The phytotoxicity to the crop plants was also indicated on the same standard as that of the herbicidal activity.

barnyardgrass [1] = assay: Test Example 7, flooded paddy pot dripping, herbicidal activity; format: in vivo, Echinochloa crus-galli; details: 3 weeks; note: ranges in brackets are in %
Protocol: as §1, §2

monochoria = assay: as above; format: in vivo, Monochoria vaginalis; details: 3 weeks; note: ranges in brackets are in %
Protocol: as §1, §2

broad-leaved weed = assay: as above; format: in vivo; details: 3 weeks; note: ranges in brackets are in %
Protocol: as §1, §2

slender spikerush = assay: as above; format: in vivo, Eleocharis acicularis; details: 3 weeks; note: ranges in brackets are in %
Protocol: as §1, §2

arrowhead = assay: as above; format: in vivo, Sagittaria pygmaea; details: 3 weeks; note: ranges in brackets are in %
Protocol: as §1, §2

corn [2] = assay: Test Example 1, foliar treatment, phytotoxicity to corn; format: in vivo; details: 3 weeks; note: ranges in brackets are in %
Protocol: as §1
(§3) Plastic beakers (diameter, 10 cm; height, 10 cm) were filled with upland field soil, and the seeds of corn, barnyardgrass, wild oat, wild mustard and velvetleaf were separately sown in the beakers and grown for 2 weeks in the greenhouse. A designed amount of the test compound was sprayed to the foliage of the test plants by means of a small hand sprayer. After the spraying, the test plants were further grown for 3 weeks in the greenhouse, and herbicidal activity was examined. In this foliar treatment, the test compounds were formulated into an emulsifiable concentrate according to Preparation Example 2 and applied at a spray volume of 5 liters per are by dispersing it in water with the addition of a spreading agent.

barnyardgrass [3] = assay: Test Example 1, foliar treatment, herbicidal activity; format: in vivo, Echinochloa crus-galli; details: 3 weeks; note: ranges in brackets are in %
Protocol: as §1, §3

wild oat = assay: as above; format: in vivo, Avena fatua; details: 3 weeks; note: ranges in brackets are in %
Protocol: as §1, §3

wild mustard = assay: as above; format: in vivo, Brassica kaber; details: 3 weeks
Protocol: as §1, §3

velvetleaf [4] = assay: as above; format: in vivo, Abutilon theophrasti; details: 3 weeks
Protocol: as §1, §3

corn [5] = assay: Test Example 3, soil surface spraying, phytotoxicity to corn; format: in vivo; details: 20 days; note: ranges in brackets are in %
Protocol: as §1
(§4) Plastic trays (35 cm×25 cm×15 cm) were filled with upland field soil, and the seeds of tall morningglory, velvetleaf and sicklepod and the seeds of corn were sown therein. A designed amount of the test compounds formulated into a wettable powder according to Preparation Example 1 was dispersed in water and applied by spraying at a spray volume of 5 liters per are to the whole surface of the soil. After the spraying, the test plants were placed in a greenhouse and grown for 20 days, and herbicidal activity and phytotoxicity were examined.

tall morningglory = assay: Test Example 3, soil surface spraying, herbicidal activity; format: in vivo, Ipomoea purpurea; details: 20 days; note: ranges in brackets are in %
Protocol: as §1, §4

sicklepod = assay: as above; format: in vivo, Cassia obtusifolia; details: 20 days; note: ranges in brackets are in %
Protocol: as §1, §4

velvetleaf [6] = assay: as above; format: in vivo, Abutilon theophrasti; details: 20 days
Protocol: as §1, §4
Throughout, for Herbicidal activity, Velvetleaf: ranges in brackets are in %.

| SMILES | Phytotoxicity, Rice plant (rice plant; 1.25 g/are) | Phytotoxicity, Rice plant (rice plant; 2.5 g/are) | Phytotoxicity, Rice plant (rice plant; 5 g/are) | Herbicidal activity, Barnyardgrass (barnyardgrass [1]; 1.25 g/are) | Herbicidal activity, Barnyardgrass (barnyardgrass [1]; 2.5 g/are) | Herbicidal activity, Barnyardgrass (barnyardgrass [1]; 5 g/are) | Herbicidal activity, Monochoria (monochoria; 1.25 g/are) | Herbicidal activity, Monochoria (monochoria; 2.5 g/are) | Herbicidal activity, Monochoria (monochoria; 5 g/are) | Herbicidal activity, Broad-leaved weed (broad-leaved weed; 1.25 g/are) | Herbicidal activity, Broad-leaved weed (broad-leaved weed; 2.5 g/are) | Herbicidal activity, Broad-leaved weed (broad-leaved weed; 5 g/are) | Herbicidal activity, Slender spikerush (slender spikerush; 1.25 g/are) | Herbicidal activity, Slender spikerush (slender spikerush; 2.5 g/are) | Herbicidal activity, Slender spikerush (slender spikerush; 5 g/are) | Herbicidal activity, Allowhead (arrowhead; 1.25 g/are) | Herbicidal activity, Allowhead (arrowhead; 2.5 g/are) | Herbicidal activity, Allowhead (arrowhead; 5 g/are) | Phytotoxicity, Corn (corn [2]; 1.25 g/are) | Phytotoxicity, Corn (corn [2]; 5 g/are) | also measured |
| --- | --- | --- | --- | --- | --- | --- | --- | --- | --- | --- | --- | --- | --- | --- | --- | --- | --- | --- | --- | --- | --- |
| CCCCCCCCOc1cc(N2C(=O)C3=C(CCCC3)C2=O)c(F)cc1Cl [Compound No. 10] | 0 (0-9) | 0 (0-9) | 0 (0-9) | 3 (50-69) | 4 (70-89) | 5 (90-100) | 5 (90-100) | 5 (90-100) | 5 (90-100) | 5 (90-100) | 5 (90-100) | 5 (90-100) | 3 (50-69) | 3 (50-69) | 4 (70-89) | 3 (50-69) | 4 (70-89) | 4 (70-89) | – | – | – |
| CCC(C)Oc1cc(N2C(=O)C3=C(CCCC3)C2=O)c(F)cc1Cl (stereo not drawn) [compound 4] | – | – | – | – | – | – | – | – | – | – | – | – | – | – | – | – | – | – | 0 (100) | 1 (90-99) | Herbicidal activity, Barnyardgrass (barnyardgrass [3]; 1.25 g/are): 1 (41-60); Herbicidal activity, Barnyardgrass (barnyardgrass [3]; 5 g/are): 5 (0); Herbicidal activity, Wild cat (wild oat; 1.25 g/are): 2 (21-40); Herbicidal activity, Wild cat (wild oat; 5 g/are): 5 (0); Herbicidal activity, Wild mustard (wild mustard; 1.25 g/are): 4 (1-10); Herbicidal activity, Wild mustard (wild mustard; 5 g/are): 5 (0); Herbicidal activity, Velvetleaf (velvetleaf [4]; 1.25 g/are): 5 (0); Herbicidal activity, Velvetleaf (velvetleaf [4]; 5 g/are): 5 (0); Phytotoxicity, Corn (corn [5]; 5 g/are): 0 (100); Phytotoxicity, Corn (corn [5]; 10 g/are): 0 (100); Herbicidal activity, Tall morningglory (tall morningglory; 5 g/are): 4 (1-10); Herbicidal activity, Tall morningglory (tall morningglory; 10 g/are): 5 (0); Herbicidal activity, Sicklepod (sicklepod; 5 g/are): 4 (1-10); Herbicidal activity, Sicklepod (sicklepod; 10 g/are): 4 (1-10); Herbicidal activity, Velvetleaf (velvetleaf [6]; 5 g/are): 5 (0); Herbicidal activity, Velvetleaf (velvetleaf [6]; 10 g/are): 5 (0) |
| CC(C)COc1cc(N2C(=O)C3=C(CCCC3)C2=O)c(F)cc1Cl [compound 5] | – | – | – | – | – | – | – | – | – | – | – | – | – | – | – | – | – | – | 0 (100) | 0 (100) | Herbicidal activity, Barnyardgrass (barnyardgrass [3]; 1.25 g/are): 2 (21-40); Herbicidal activity, Barnyardgrass (barnyardgrass [3]; 5 g/are): 4 (1-10); Herbicidal activity, Wild cat (wild oat; 1.25 g/are): 1 (41-60); Herbicidal activity, Wild cat (wild oat; 5 g/are): 4 (1-10); Herbicidal activity, Wild mustard (wild mustard; 1.25 g/are): 3 (11-20); Herbicidal activity, Wild mustard (wild mustard; 5 g/are): 5 (0); Herbicidal activity, Velvetleaf (velvetleaf [4]; 1.25 g/are): 5 (0); Herbicidal activity, Velvetleaf (velvetleaf [4]; 5 g/are): 5 (0); Phytotoxicity, Corn (corn [5]; 5 g/are): 0 (100); Phytotoxicity, Corn (corn [5]; 10 g/are): 0 (100); Herbicidal activity, Tall morningglory (tall morningglory; 5 g/are): 4 (1-10); Herbicidal activity, Tall morningglory (tall morningglory; 10 g/are): 5 (0); Herbicidal activity, Sicklepod (sicklepod; 5 g/are): 4 (1-10); Herbicidal activity, Sicklepod (sicklepod; 10 g/are): 4 (1-10); Herbicidal activity, Velvetleaf (velvetleaf [6]; 5 g/are): 5 (0); Herbicidal activity, Velvetleaf (velvetleaf [6]; 10 g/are): 5 (0) |
| CCCCOc1cc(N2C(=O)C3=C(CCCC3)C2=O)c(F)cc1Cl [compound 6] | – | – | – | – | – | – | – | – | – | – | – | – | – | – | – | – | – | – | 0 (100) | 0 (100) | Herbicidal activity, Barnyardgrass (barnyardgrass [3]; 1.25 g/are): 3 (11-20); Herbicidal activity, Barnyardgrass (barnyardgrass [3]; 5 g/are): 4 (1-10); Herbicidal activity, Wild cat (wild oat; 1.25 g/are): 1 (41-60); Herbicidal activity, Wild cat (wild oat; 5 g/are): 3 (11-20); Herbicidal activity, Wild mustard (wild mustard; 1.25 g/are): 4 (1-10); Herbicidal activity, Wild mustard (wild mustard; 5 g/are): 5 (0); Herbicidal activity, Velvetleaf (velvetleaf [4]; 1.25 g/are): 5 (0); Herbicidal activity, Velvetleaf (velvetleaf [4]; 5 g/are): 5 (0); Phytotoxicity, Corn (corn [5]; 5 g/are): 0 (100); Phytotoxicity, Corn (corn [5]; 10 g/are): 0 (100); Herbicidal activity, Tall morningglory (tall morningglory; 5 g/are): 4 (1-10); Herbicidal activity, Tall morningglory (tall morningglory; 10 g/are): 4 (1-10); Herbicidal activity, Sicklepod (sicklepod; 5 g/are): 4 (1-10); Herbicidal activity, Sicklepod (sicklepod; 10 g/are): 4 (1-10); Herbicidal activity, Velvetleaf (velvetleaf [6]; 5 g/are): 5 (0); Herbicidal activity, Velvetleaf (velvetleaf [6]; 10 g/are): 5 (0) |
| CCCCCCOc1cc(N2C(=O)C3=C(CCCC3)C2=O)c(F)cc1Cl [compound 8] | 0 (0-9) | 0 (0-9) | 0 (0-9) | 4 (70-89) | 5 (90-100) | 5 (90-100) | 5 (90-100) | 5 (90-100) | 5 (90-100) | 5 (90-100) | 5 (90-100) | 5 (90-100) | 4 (70-89) | 4 (70-89) | 5 (90-100) | 4 (70-89) | 5 (90-100) | 5 (90-100) | – | – | – |
| CCCCCCCOc1cc(N2C(=O)C3=C(CCCC3)C2=O)c(F)cc1Cl [compound 9] | 0 (0-9) | 0 (0-9) | 0 (0-9) | 4 (70-89) | 4 (70-89) | 5 (90-100) | 5 (90-100) | 5 (90-100) | 5 (90-100) | 5 (90-100) | 5 (90-100) | 5 (90-100) | 3 (50-69) | 4 (70-89) | 4 (70-89) | 3 (50-69) | 4 (70-89) | 4 (70-89) | – | – | – |
| CC(C)CCOc1cc(N2C(=O)C3=C(CCCC3)C2=O)c(F)cc1Cl [compound 11] | 0 (0-9) | 0 (0-9) | 0 (0-9) | 4 (70-89) | 5 (90-100) | 5 (90-100) | 5 (90-100) | 5 (90-100) | 5 (90-100) | 5 (90-100) | 5 (90-100) | 5 (90-100) | 4 (70-89) | 4 (70-89) | 5 (90-100) | 3 (50-69) | 4 (70-89) | 5 (90-100) | – | – | – |
